Patent publication EP1102770B1, “PARAMAGNETIC 3-,8-SUBSTITUTED DEUTEROPORPHYRIN DERIVATIVES, PHARMACEUTICAL PREPARATIONS CONTAINING SAME, METHOD FOR PRODUCING SAME AND THEIR USE IN MAGNETIC RESONANCE IMAGING OF NECROSIS AND INFARCTION” (SCHERING AKTIENGESELLSCHAFT, priority 1998, dated 2000)
Values joined by “and” are separate entries in the source; they are usually repeats but may differ in a detail not shown here. Equal values may be shown once.

Experiments:
[1] = test system: Tieren mit induziertem Myocardinfarkt; test: MRI experiments in animals with induced myocardial infarction (necrosis-selective enhancement); assay type: in vivo, Ratten (Han.Wistar, Schering SPF); settings: for Enhancement im nekrotischen Areal des Myocards: single i.v. dose 100 µmol Gd / kg KGW ca. 24 h after infarct induction, middle and late phase, 2.5 to ca. 24 h p. i., MRI 2 Tesla; for Abgrenzung des nekrotischen Areals im MRI-Experiment, Korrelation mit histologischer NBT ("Vital"-) Färbung: single i.v. dose 100 µmol Gd / kg KGW, heart prepared ca. 24 h p. i.
Experimental: Das nekroseselektive Enhancement wurde nach einmaliger intravenöser Applikation der Substanz aus Beispiel 1d an Tieren mit experimentell erzeugtem Myocardinfarkt im MRI Experiment untersucht. Die Induktion der Herzinfarkte erfolgte an narkotisierten (Domitor®/Dormicum®, i.m.) Ratten (Han.Wistar, Schering SPF, ca.300 g KGW) durch Okklusion der linken Coronararterie. Die Kontrastmittelapplikation (Dosis: 100 µmol Gd / kg KGW) erfolgte ca. 24 h nach der Infarktinduktion. Die Tiere wurden vor und bis 24 h nach KM-Applikation MR-tomographisch (SISCO SIS 85, 2 Tesla; SE-Sequenz, EKG-getriggert, TR: ca. 400 ms, TE: 10 ms, nt=4, ni=256, FOV: 7*7 cm, SD ≈ 3 mm, je 1 Schicht axial) untersucht. Ca. 24 h p. i. wurden die Tiere - im MRT - durch eine Narkotikaüberdosis getötet und zusätzlich ein MRI-Experiment am "frischtoten" Tier (--> keine Bewegungsartefakte) durchgeführt. Zur Verifizierung des Infarktes (Größe und Lage) wurde das Herz präpariert, in Scheiben geschnitten und anschließend eine NBT ("Vital-") Färbung durchgeführt. Vor KM-Applikation ist das infarzierte Areal nicht vom "normalen" Myocard zu unterscheiden, da sich beide Areale isointens darstellen (s. Abb.: 1a). Direkt nach der Substanzapplikation stellt sich der nicht-perfundierte Anteil des Myocards als hypointenses Areal dar (s. Abb.: 1b). Ab ca. 30 min p. i. steigt die Signalintensität im nicht-perfundierten Areal etwas an bzw. die Größe des abgegrenzten (Signalarmen) Areals nimmt ab (--> langsame Diffusion in die Nekrose).
Das nekroseselektive Enhancement wurde nach einmaliger intravenöser Applikation der Substanz aus Beispiel 2d an Tieren mit experimentell erzeugtem Myocardinfarkt im MRI Experiment untersucht. Die Induktion der Herzinfarkte erfolgte an narkotisierten (Domitor®/Dormicum®, i.m.) Ratten (Han.Wistar, Schering SPF, ca.300 g KGW) durch Okklusion der linken Coronararterie. Die Kontrastmittelapplikation (Dosis: 100 µmol Gd / kg KGW ) erfolgte ca. 24 h nach der Infarktinduktion. Die Tiere wurden vor und bis 3 h (kontinuierlich) sowie 24 h nach KM-Applikation MR-tomographisch (SISCO SIS 85, 2 Tesla; SE-Sequenz, EKG-getriggert, TR: ca. 400 ms, TE: 10 ms, nt=4, ni=256, FOV: 7*7 cm, SD ≈ 3 mm, je 1 Schicht axial) untersucht. Ca. 24 h p. i. wurden die Tiere - im MRT - durch eine Narkotikaüberdosis getötet und ein MRI-Experiment am "frischtoten" Tier (--> keine Bewegungsartefakte) durchgeführt. Zur Verifizierung des Infarktes (Größe und Lage) wurde das Herz präpariert, in Scheiben geschnitten und anschließend eine NBT (nitro blue tetrazolium chlorid) Färbung durchgeführt. Vor KM-Applikation ist das infarzierte Areal nicht vom "normalen" Myocard zu unterscheiden, da sich beide Areale isointens darstellen (s. Abb.: 2a). Direkt nach der Substanzapplikation stellt sich der nicht-perfundierte Anteil des Myocards als hypointenses Areal dar (s. Abb.: 2b). Ab ca. 30 min p. i. steigt die Signalintensität im nicht-perfundierten Areal etwas an bzw. die Größe des abgegrenzten (signalarmen) Areals nimmt ab (--> langsame Diffusion in die Nekrose).
Das nekroseselektive Enhancement wurde nach einmaliger intravenöser Applikation der Substanz aus Beispiel 4d an Tieren mit experimentell erzeugtem Myocardinfarkt im MRI Experiment untersucht. Die Induktion der Herzinfarkte erfolgte an narkotisierten (Domitor®/Dormicum®, i. m.) Ratten (Han. Wistar, Schering SPF, ca. 300 g KGW) durch Okklusion der linken Coronararterie. Die Kontrastmittelapplikation (Dosis: 100 µmol Gd / kg KGW) erfolgte ca. 24 h nach der Infarktinduktion. Die Tiere wurden vor und bis 3 h (kontinuierlich) sowie 24 h nach KM-Applikation MR-tomographisch (SISCO SIS 85, 2 Tesla; SE-Sequenz, EKG-getriggert, TR: ca. 400 ms, TE: 10 ms, nt=4, ni=256, FOV: 7*7 cm, SD ≈ 3 mm, je 1 Schicht axial) untersucht. Ca. 24 h p. i. wurden die Tiere - im MRT - durch eine Narkotikaüberdosis getötet und ein MRI-Experiment am "frischtoten" Tier (--> keine Bewegungsartefakte) durchgeführt. […]

[2] = test system: humanem Coloncarcinom (HT-29 P9); test: Effect of light (ED50) on a tumour cell culture in the presence of porphyrins (phototoxicity); assay type: cell-based, human; settings: concentration at which about half of the cells are no longer vital, 3 days xenon lamp (8,5 k Lux, UV filter), 2 x 30 min daily, count on day 4
Experimental: In Kulturflaschen von 25 ml Inhalt wird eine Zellkultur von humanem Coloncarcinom (HT-29 P9) 3 Tage bei 37°C vermehrt. Die Kulturen werden in zwei Grupen aufgeteilt und mit Lösungen der Prüfsubstanzen (50 mmol Porphyrineinheit (PE) /l, verdünnt mit fötalem Kälberserum) in zunehmender Menge (0; 1,5; 5; 8,5; 12; 15,5; 19 µmol PE/l) versetzt. Die Proben werden drei Tage lang mit einer Xenon-Lampe (8,5 k Lux, UV-Filter) bestrahlt. Die erste Gruppe erhält täglich 2 Bestrahlungen von je 30 Minuten Dauer im Abstand von 4 Stunden. Die restliche Zeit bleibt sie im Dunkeln im Brutschrank. Die zweite Gruppe wird nicht belichtet und bleibt die gesamte Zeit im Dunkeln im Brutschrank. Am vierten Tag wird das Zellwachstum durch Lebend-Tot-Färbung und Zählung mit der Zählkammer bestimmt.
In der Tabelle ist die Konzentration angegeben, bei der etwa die Hälfte der Zellen nicht mehr vital ist.

[3] = Determination of relaxivity R1; assay type: physicochemical; settings: Wasser; 40°C; 0,47 Tesla; Minispec PC 20; n=3
Experimental: • Bestimmung der Relaxivity R1 [L·mmol^-1 ·s^-1] • Gerät: Minispec PC 20 • Messung bei 40°C; 0,47 Tesla • T1-Sequenz: 180°-TI-90°, Inversion Recovery

[4] = In vivo comparison of blood kinetics with Dy-DTPA; settings: for Blutkonzentrationen: rats, i.v. 82 µmol Gd/kg
[5] = Acute tolerance after single intravenous administration; assay type: in vivo, SPF-Mäuse (NMRI, Schering); settings: mouse, single i.v., observation 7 days
Experimental: Es soll die Akute Verträglichkeit der Titelverbindung aus Beispiel 2d nach einmaliger intravenöser Gabe an der Maus untersucht werden.
Testmethode: Methode KM D1, 5. Auflage Tiermaterial: SPF-Mäuse (NMRI, Schering), 18-22 g, f:m = 50:50 Injektionsgeschwindigkeit: 2 ml/min. Kriterium der Wirksamkeit: exitus letalis Beobachtungszeitraum: 7 Tage

[6] = plasma, rats n=3, i.v., 82 µmol Gd/kg (Verbindung 1), 103 µmol Dy/kg (Verbindung 2)

{mu-[{16,16'-[Chloroeisen(III)-7, 12-diethyl-3, 8, 13, 17-tetramethylporphyrin-2, 18-diyl]-bis[3, 6, 9-tris(carboxymethyl)-11,14-dioxo-3, 6, 9, 12, 13-pentaazahexadecanoato]}(8-)]}-digadolinato(2-) [Beispiel 1d]
Enhancement im nekrotischen Areal des Myocards [1]: deutliches Enhancement | Abgrenzung des nekrotischen Areals im MRI-Experiment, Korrelation mit histologischer NBT ("Vital"-) Färbung [1]: korreliert sehr gut | ED50 [2]: > 1,25 mmol PE/l | Relaxivity R1 [3]: 11.9 ± 1.0 L/mmol/s | Vd ss [4, 6]: 0.08 ± 0.00 L/kg | α-t½ [4, 6]: 3.56 ± 1.01 min | β-t½ [4, 6]: 2.88 h and 2.8817 ± 0.646 h | Blutkonzentrationen ([4]; after 120 min): 22-25 % der Dosis | Blutkonzentrationen ([4]; after three minutes): 56-63 % der Dosis

{mu-[{16,16'-[Kupfer(II)-7, 12-diethyl-3, 8, 13, 17-tetramethylporphyrin-2,18-diyl]-bis[3, 6, 9-tris(carboxymethyl)-11, 14-dioxo-3, 6, 9, 12, 13-pentaazahexadecanoato]}(8-)]}-digadolinato(2-), Dinatrium [Beispiel 4d]
Enhancement im nekrotischen Areal des Myocards [1]: deutliches Enhancement | Abgrenzung des nekrotischen Areals im MRI-Experiment, Korrelation mit histologischer NBT ("Vital"-) Färbung [1]: korreliert sehr gut | ED50 [2]: > 1,25 mmol PE/l | Relaxivity R1 [3]: 11.0 ± 0.1 L/mmol/s

{mu-[{16, 16'-(7, 12-Diethyl-3, 8, 13, 17-tetramethylporphyrin-2, 18-diyl]-bis[3,6,9-tris(carboxymethyl)-11, 14-dioxo-3, 6, 9,12, 13-pentaazahexadecanoato]}(8-)]}-digadolinato(2-),-Dinatrium [IV, reference compound]
ED50 [2]: 6,4·10^-3 mmol PE/l | Relaxivity R1 [3]: 9.2 ± 0.1 L/mmol/s

{mu-[{16, 16'-[Chloromangan(III)-7, 12-diethyl-3, 8, 13, 17-tetramethylporphyrin-2, 18-diyl]-bis[3, 6, 9-tris(carboxymethyl)-11, 14-dioxo-3, 6, 9, 12, 13-pentaazahexadecanoato]}(8-)]}-digadolinato(2-),-Dinatrium [Beispiel 2d]
Enhancement im nekrotischen Areal des Myocards [1]: deutliches Enhancement | Abgrenzung des nekrotischen Areals im MRI-Experiment, Korrelation mit histologischer NBT ("Vital"-) Färbung [1]: korreliert sehr gut | ED50 [2]: > 1,25 mmol PE/l | LD50 ([5]; 2 ml/min, value stated as to be expected): ≥ 5 mmol Gd/kg | Lebern und Nieren aller überlebenden Tiere [5]: unauffällig | Relaxivity R1 [3]: 9.3 ± 0.1 L/mmol/s
